We go through one compound from patent EP3095787A1, “[…] ACTIVE COMPOUNDS AS DAG-LIPASE INHIBITORS” (Universiteit Leiden, priority 2015, dated 2016).

For one assay, the target named is T1, DAGL-α (Mus musculus, UniProt Q6WQJ1).
T1 construct: endogenously expressed DAGL-α in mouse membrane proteome; from tissue; host or cells: mouse brain membrane proteome
T1 sequence (Q6WQJ1 1-1044): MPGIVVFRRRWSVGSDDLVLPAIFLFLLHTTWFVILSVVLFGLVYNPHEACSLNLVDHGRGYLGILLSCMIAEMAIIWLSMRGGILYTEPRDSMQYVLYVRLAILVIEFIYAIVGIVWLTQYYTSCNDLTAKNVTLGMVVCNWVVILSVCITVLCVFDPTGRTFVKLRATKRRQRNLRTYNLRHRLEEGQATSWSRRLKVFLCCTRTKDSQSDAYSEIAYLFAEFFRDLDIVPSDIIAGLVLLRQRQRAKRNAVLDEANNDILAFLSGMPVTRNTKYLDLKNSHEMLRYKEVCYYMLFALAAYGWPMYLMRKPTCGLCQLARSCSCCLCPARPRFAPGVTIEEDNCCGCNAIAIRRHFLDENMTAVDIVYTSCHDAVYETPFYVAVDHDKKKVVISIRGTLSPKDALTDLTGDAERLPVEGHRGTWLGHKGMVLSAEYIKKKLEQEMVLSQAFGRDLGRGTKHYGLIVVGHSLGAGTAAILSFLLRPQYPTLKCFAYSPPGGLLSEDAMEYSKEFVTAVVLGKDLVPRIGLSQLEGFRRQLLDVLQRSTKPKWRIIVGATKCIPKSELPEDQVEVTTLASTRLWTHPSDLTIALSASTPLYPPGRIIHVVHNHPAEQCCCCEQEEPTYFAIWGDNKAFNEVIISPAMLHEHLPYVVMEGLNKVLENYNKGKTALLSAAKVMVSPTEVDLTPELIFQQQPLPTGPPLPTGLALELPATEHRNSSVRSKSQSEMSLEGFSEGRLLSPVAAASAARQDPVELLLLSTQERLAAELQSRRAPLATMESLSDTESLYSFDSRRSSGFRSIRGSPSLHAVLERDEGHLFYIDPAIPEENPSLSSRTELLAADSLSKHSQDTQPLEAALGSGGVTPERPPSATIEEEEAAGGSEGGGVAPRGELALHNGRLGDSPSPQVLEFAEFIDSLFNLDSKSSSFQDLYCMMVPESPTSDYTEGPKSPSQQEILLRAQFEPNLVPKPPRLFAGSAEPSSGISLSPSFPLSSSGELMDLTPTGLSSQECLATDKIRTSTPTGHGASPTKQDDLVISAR
The assay can be described thus: Competitive ABPP with MB064 on endogenous DAGL-α in mouse brain membrane proteome. The class given is biochemical. Conditions: MB064 250 nM, n=3, read-out: pIC50 of DAGL-α labeling by MB064 (converted). An excerpt: To test its activity on endogenously expressed DAGL-α in mouse membrane proteome, an ABPP assay with MB064, a specific β-lactone-containing probe, which was tailor-made for the detection of DAGL-α activity, was used. An alkyne group was introduced in the prototypical DAGL-inhibitor tetrahydrolipstatin (THL) and conjugated this covalent, irreversible inhibitor via copper-catalyzed click chemistry to a BODIPY-acid as a fluorencent reporter group to yield tailor-made probe MB064.

The next assay deals with T2, cannabinoid CB1 receptor (Homo sapiens, UniProt P21554).
T2 construct: expressed in transfected cells; host or cells: CHOK1hCB1_bgal (CHO-K1), membranes
In words: [3H]CP55940 displacement assay on CHOK1hCB1_bgal membranes. The class given is binding. The method, then:
CHOK1hCB1_bgal cells (CHOK1 cell line expressing human cannabinoid receptor 1) were cultured in Ham's F12 Nutrient Mixture supplemented with 10% fetal calf serum, 1 mM glutamine, 50 U/mL penicillin, 50 µg/ml streptomycin, […] hygromycin and 800 µg/mL geneticin in a humidified atmosphere at 37°C and 5% CO2. Cells were subcultured twice a week at a ratio of 1:20 on 10-cm ø plates by trypsinization. For membrane preparation the cells were subcultured 1:10 and transferred to large 15-cm diameter plates.
The cells on thirty 15-cm ø plates were detached from the bottom by scraping them into 5 mL phosphate-buffered saline (PBS), collected in 12 mL Falcon tubes and centrifuged for 5 minutes at 200 x g (3,000 rpm). The pellets were resuspended in ice-cold 50 mM Tris-HCl buffer and 5 mM MgCl2 (pH 7.4). […] Membrane protein concentrations were measured using the BCA method.
[^3H]CP55940 displacement assays were used for high throughput screening of cold ligands and the determination of their affinity (Ki) and IC50 values. […] Nonspecific binding was determined in the presence of 10 µM AM630 (6-lodopravadoline; a selective inverse agonist for the cannabinoid receptor CB2). […] After 2 hours, the filter-bound radioactivity was determined by scintillation spectrometry using a Tri-Carb 2900 TR liquid scintillation counter (Perkin Elmer, Boston, MA).

The structures appear in SMILES notation. Bounds are passed on as bounds.

T2 sequence (P21554 whole entry): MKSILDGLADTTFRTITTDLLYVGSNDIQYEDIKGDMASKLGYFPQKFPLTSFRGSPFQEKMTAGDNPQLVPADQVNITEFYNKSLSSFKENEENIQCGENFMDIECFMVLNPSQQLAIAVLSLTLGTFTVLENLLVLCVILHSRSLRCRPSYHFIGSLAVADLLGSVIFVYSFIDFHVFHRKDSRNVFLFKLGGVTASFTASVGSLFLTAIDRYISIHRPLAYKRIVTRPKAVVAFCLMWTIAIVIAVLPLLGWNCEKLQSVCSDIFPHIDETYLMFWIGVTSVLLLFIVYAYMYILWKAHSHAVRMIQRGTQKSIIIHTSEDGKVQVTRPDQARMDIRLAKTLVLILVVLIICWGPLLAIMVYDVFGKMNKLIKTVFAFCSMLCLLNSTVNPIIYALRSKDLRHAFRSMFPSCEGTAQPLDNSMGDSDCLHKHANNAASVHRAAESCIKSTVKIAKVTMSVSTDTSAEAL

As for `Cc1ccc(-c2cnc3nc(C(=O)CCCCCc4ccccc4)oc3c2)cc1` [Compound 25, 1-(6-(p-Tolyl)oxazolo[4,5-b]pyridin-2-yl)-6-phenylhexan-1-one], the IC50 at DAGL-α was 31.6 nM. The “displacement of 3H-CP55940 from the CB1 receptor” value at cannabinoid CB1 receptor (10 µM) is recorded as “did not displace”. The Ki (usually the equilibrium dissociation constant of an inhibitor or competing ligand from its target) at cannabinoid CB1 receptor (CB1 receptor radioligand displacement) is over 10000 nM.
